# Assay results reported in ChEMBL document CHEMBL4613208, “Isatin derivatives and their anti-bacterial activities” (Eur J Med Chem, 2019).
# Legend:
# Staphylococcus aureus [1] = experiment: Antibacterial activity against Staphylococcus aureus; type: functional, organism-based
# Escherichia coli [2] = experiment: Antibacterial activity against Escherichia coli; type: functional, organism-based
# Bacillus subtilis [3] = experiment: Antibacterial activity against Bacillus subtilis; type: functional
# Pseudomonas aeruginosa [4] = experiment: Antibacterial activity against Pseudomonas aeruginosa; type: functional, organism-based
# Pseudomonas aeruginosa [5] = experiment: Antibacterial activity against Pseudomonas aeruginosa after 24 hrs by paper disc diffusion technique; type: functional; conditions: Pseudomonas aeruginosa, 24 h; read-out: MIC
# Staphylococcus aureus [6] = experiment: Antibacterial activity against Staphylococcus aureus after 24 hrs by paper disc diffusion technique; type: functional; conditions: Staphylococcus aureus, 24 h; read-out: MIC
# Escherichia coli [7] = experiment: Antibacterial activity against Escherichia coli after 24 hrs by paper disc diffusion technique; type: functional; conditions: Escherichia coli, 24 h; read-out: MIC
# Klebsiella pneumoniae = experiment: Antibacterial activity against Klebsiella pneumoniae after 24 hrs by paper disc diffusion technique; type: functional; conditions: Klebsiella pneumoniae, 24 h; read-out: MIC
# Micrococcus luteus = experiment: Antibacterial activity against Micrococcus luteus after 24 hrs by paper disc diffusion technique; type: functional; conditions: Micrococcus luteus, 24 h
# [8] = test system: Staphylococcus epidermidis; experiment: Antibacterial activity against Staphylococcus epidermidis after 24 hrs by paper disc diffusion technique; type: functional; conditions: Staphylococcus epidermidis, 24 h
# Staphylococcus aureus [9] = experiment: Antibacterial activity against Staphylococcus aureus ATCC 25923 after 24 hrs by agar well diffusion technique; type: functional; conditions: ATCC 25923, 24 h
# Escherichia coli [10] = experiment: Antibacterial activity against Escherichia coli ATCC 25922 after 24 hrs by agar well diffusion technique; type: functional; conditions: ATCC 25922, 24 h
# Shigella dysenteriae = experiment: Antibacterial activity against Shigella dysenteriae after 24 hrs by agar well diffusion technique; type: functional
# Bacillus cereus = experiment: Antibacterial activity against Bacillus cereus after 24 hrs by agar well diffusion technique; type: functional
# Salmonella typhi = experiment: Antibacterial activity against Salmonella typhi; type: functional, Salmonella enterica subsp. enterica serovar Typhi; conditions: Salmonella enterica
# Bacillus subtilis [11] = experiment: Antibacterial activity against Bacillus subtilis by two-fold serial dilution technique; type: functional
# Escherichia coli [12] = experiment: Antibacterial activity against Escherichia coli by two-fold serial dilution technique; type: functional
# Pseudomonas aeruginosa [13] = experiment: Antibacterial activity against Pseudomonas aeruginosa by two-fold serial dilution technique; type: functional
# Staphylococcus aureus [14] = experiment: Antibacterial activity against Staphylococcus aureus by two-fold serial dilution technique; type: functional
# Escherichia coli [15] = experiment: Antibacterial activity against Escherichia coli assessed as zone of inhibition at 20 mg/ml; type: functional; conditions: read-out: IZ
# Staphylococcus aureus [16] = experiment: Antibacterial activity against Staphylococcus aureus assessed as zone of inhibition at 20 mg/ml; type: functional; conditions: read-out: IZ
# Pseudomonas aeruginosa [17] = experiment: Antibacterial activity against Pseudomonas aeruginosa assessed as zone of inhibition at 20 mg/ml; type: functional; conditions: read-out: IZ
# Bacillus subtilis [18] = experiment: Antibacterial activity against Bacillus subtilis assessed as zone of inhibition at 20 mg/ml; type: functional; conditions: read-out: IZ
smiles,measurement,setting,value
[N-]=[N+]=Nc1ccc(C2=NN(C(=O)CN3C(=O)C(=O)c4ccccc43)C(c3ccc(F)cc3)C2)cc1 (centres undefined),MIC,Staphylococcus aureus [1],6.25 to 50 µg/mL
same,MIC,Escherichia coli [2],6.25 to 50 µg/mL
same,MIC,Bacillus subtilis [3],6.25 to 50 µg/mL
same,MIC,Pseudomonas aeruginosa [4],6.25 to 50 µg/mL
Cc1ccc(/C=N/c2ccc(/N=C3/C(=O)N(CN4CCN(c5cc6c(cc5F)c(=O)c(C(=O)O)cn6C5CC5)CC4)c4ccc(F)cc43)cc2)cc1,MIC,Pseudomonas aeruginosa [5],7.81 to 125 µg/mL
same,MIC,Staphylococcus aureus [6],7.81 to 125 µg/mL
same,MIC,Escherichia coli [7],7.81 to 125 µg/mL
same,MIC,Klebsiella pneumoniae,7.81 to 125 µg/mL
same,MIC,Micrococcus luteus; read-out: MIC,7.81 to 125 µg/mL
same,MIC,[8]; read-out: MIC,7.81 to 125 µg/mL
Cc1cc(NS(=O)(=O)c2ccc(/N=C3\C(=O)N(CO)c4ccccc43)cc2)no1,MIC,Staphylococcus aureus [9],1 to 15 µg/mL
same,MIC,Escherichia coli [10],1 to 15 µg/mL
same,MIC,Shigella dysenteriae,1 to 15 µg/mL
same,MIC,Bacillus cereus,1 to 15 µg/mL
O=C(O)c1cn(C2CC2)c2cc(N3CCNCC3)c(F)cc2c1=O [CIPROFLOXACIN],MIC,Pseudomonas aeruginosa [5],3.9 to 15.6 µg/mL
same,MIC,Staphylococcus aureus [6],3.9 to 15.6 µg/mL
same,MIC,Staphylococcus aureus [1],< 5 µg/mL
same,MIC,Escherichia coli [2],< 5 µg/mL
same,MIC,Escherichia coli [7],3.9 to 15.6 µg/mL
same,MIC,Salmonella typhi,2 nM
same,MIC,Klebsiella pneumoniae,3.9 to 15.6 µg/mL
same,MIC,Micrococcus luteus,3.9 to 15.6 µg/mL
same,MIC,Bacillus subtilis [3],< 5 µg/mL
same,MIC,[8],3.9 to 15.6 µg/mL
same,MIC,Pseudomonas aeruginosa [4],< 5 µg/mL
O=C(N/N=C1\C(=O)Nc2ccc(Br)cc21)N/N=C1\C(=O)Nc2ccc(Br)cc21,MIC,Bacillus subtilis [11],6.25 to 100 µg/mL
same,MIC,Escherichia coli [12],6.25 to 100 µg/mL
same,MIC,Pseudomonas aeruginosa [13],6.25 to 100 µg/mL
same,MIC,Staphylococcus aureus [14],6.25 to 100 µg/mL
O=C(N/N=C1\C(=O)Nc2ccc(C(=O)O)cc21)N/N=C1\C(=O)Nc2ccc(C(=O)O)cc21,MIC,Bacillus subtilis [11],6.25 to 100 µg/mL
same,MIC,Escherichia coli [12],6.25 to 100 µg/mL
same,MIC,Pseudomonas aeruginosa [13],6.25 to 100 µg/mL
same,MIC,Staphylococcus aureus [14],6.25 to 100 µg/mL
O=C(N/N=C1\C(=O)Nc2ccccc21)N/N=C1\C(=O)Nc2ccccc21,MIC,Bacillus subtilis [11],6.25 to 100 µg/mL
same,MIC,Escherichia coli [12],6.25 to 100 µg/mL
same,MIC,Pseudomonas aeruginosa [13],6.25 to 100 µg/mL
same,MIC,Staphylococcus aureus [14],6.25 to 100 µg/mL
O=C(O)c1cn(C2CC2)c2cc(N3CCN(CN4C(=O)/C(=N/c5ccc(/N=C/c6ccc(Cl)cc6)cc5)c5cc(F)ccc54)CC3)c(F)cc2c1=O,MIC,Pseudomonas aeruginosa [5],7.81 to 125 µg/mL
same,MIC,Staphylococcus aureus [6],7.81 to 125 µg/mL
same,MIC,Escherichia coli [7],7.81 to 125 µg/mL
same,MIC,Klebsiella pneumoniae,7.81 to 125 µg/mL
same,MIC,Micrococcus luteus; read-out: MIC,7.81 to 125 µg/mL
same,MIC,[8]; read-out: MIC,7.81 to 125 µg/mL
COc1ccc(/C=N/c2ccc(/N=C3/C(=O)N(CN4CCN(c5cc6c(cc5F)c(=O)c(C(=O)O)cn6C5CC5)CC4)c4ccc(F)cc43)cc2)cc1,MIC,Pseudomonas aeruginosa [5],7.81 to 125 µg/mL
same,MIC,Staphylococcus aureus [6],7.81 to 125 µg/mL
same,MIC,Escherichia coli [7],7.81 to 125 µg/mL
same,MIC,Klebsiella pneumoniae,7.81 to 125 µg/mL
same,MIC,Micrococcus luteus; read-out: MIC,7.81 to 125 µg/mL
same,MIC,[8]; read-out: MIC,7.81 to 125 µg/mL
Cc1ccc2c(c1)/C(=N/c1nc3ccccc3[nH]1)C(=O)N2,MIC,Staphylococcus aureus [9],1 to 15 µg/mL
same,MIC,Escherichia coli [10],1 to 15 µg/mL
same,MIC,Shigella dysenteriae,1 to 15 µg/mL
same,MIC,Bacillus cereus,1 to 15 µg/mL
O=C(O)c1cn(C2CC2)c2cc(N3CCN(CN4C(=O)/C(=N/c5ccc(/N=C/c6cccc([N+](=O)[O-])c6)cc5)c5cc(F)ccc54)CC3)c(F)cc2c1=O,MIC,Pseudomonas aeruginosa [5],7.81 to 125 µg/mL
same,MIC,Staphylococcus aureus [6],7.81 to 125 µg/mL
same,MIC,Escherichia coli [7],7.81 to 125 µg/mL
same,MIC,Klebsiella pneumoniae,7.81 to 125 µg/mL
same,MIC,Micrococcus luteus; read-out: MIC,7.81 to 125 µg/mL
same,MIC,[8]; read-out: MIC,7.81 to 125 µg/mL
CCOC(=O)CN1C(=O)/C(=C2\SC(=S)N(CC(=O)N(c3oc(NC(C)(C)C)c(C(=O)OC)c3C(=O)OC)C(C)(C)C)C2=O)c2cc(Cl)ccc21,zone of inhibition at 20000 µg/mL,Escherichia coli [15],15.6 to 26 mm
same,zone of inhibition at 20000 µg/mL,Staphylococcus aureus [16],15.6 to 26 mm
same,zone of inhibition at 20000 µg/mL,Pseudomonas aeruginosa [17],15.6 to 26 mm
same,zone of inhibition at 20000 µg/mL,Bacillus subtilis [18],15.6 to 26 mm
O=C(N/N=C1\C(=O)N(Cc2ccccc2)c2ccc(Cl)cc21)N/N=C1\C(=O)N(Cc2ccccc2)c2ccc(Cl)cc21,MIC,Bacillus subtilis [11],6.25 to 100 µg/mL
same,MIC,Escherichia coli [12],6.25 to 100 µg/mL
same,MIC,Pseudomonas aeruginosa [13],6.25 to 100 µg/mL
same,MIC,Staphylococcus aureus [14],6.25 to 100 µg/mL
O=C(O)c1cn(C2CC2)c2cc(N3CCN(CN4C(=O)/C(=N/c5ccc(/N=C/c6ccc([N+](=O)[O-])cc6)cc5)c5cc(F)ccc54)CC3)c(F)cc2c1=O,MIC,Pseudomonas aeruginosa [5],7.81 to 125 µg/mL
same,MIC,Staphylococcus aureus [6],7.81 to 125 µg/mL
same,MIC,Escherichia coli [7],7.81 to 125 µg/mL
same,MIC,Klebsiella pneumoniae,7.81 to 125 µg/mL
same,MIC,Micrococcus luteus; read-out: MIC,7.81 to 125 µg/mL
same,MIC,[8]; read-out: MIC,7.81 to 125 µg/mL
COc1cc(/C=N/N2C(N)=NNC23C(=O)Nc2ccc(C)cc23)ccc1O (centres undefined),MIC,Staphylococcus aureus [9],1 to 15 µg/mL
same,MIC,Escherichia coli [10],1 to 15 µg/mL
same,MIC,Shigella dysenteriae,1 to 15 µg/mL
same,MIC,Bacillus cereus,1 to 15 µg/mL
COc1cc(/C=N/c2ccc(/N=C3/C(=O)N(CN4CCN(c5cc6c(cc5F)c(=O)c(C(=O)O)cn6C5CC5)CC4)c4ccc(F)cc43)cc2)ccc1O,MIC,Pseudomonas aeruginosa [5],7.81 to 125 µg/mL
same,MIC,Staphylococcus aureus [6],7.81 to 125 µg/mL
same,MIC,Escherichia coli [7],7.81 to 125 µg/mL
same,MIC,Klebsiella pneumoniae,7.81 to 125 µg/mL
same,MIC,Micrococcus luteus; read-out: MIC,7.81 to 125 µg/mL
same,MIC,[8]; read-out: MIC,7.81 to 125 µg/mL
Cc1c(C)c2c(c(C)c1O)CCC(C)(C(=O)N/N=C1\C(=O)Nc3ccc(Br)cc31)O2 (centres undefined),MIC,Staphylococcus aureus [1],12.5 to 100 µg/mL
same,MIC,Escherichia coli [2],12.5 to 100 µg/mL
same,MIC,Pseudomonas aeruginosa [4],12.5 to 100 µg/mL
CC1(C)S[C@@H]2[C@H](NC(=O)Cc3ccccc3)C(=O)N2[C@H]1C(=O)O [PENICILLIN G],IC50,Staphylococcus aureus [1],631 µM
same,IC50,Escherichia coli [2],631 µM
same,IC50,Pseudomonas aeruginosa [4],631 µM
